Measurements reported in patent US20050245461A1, “Methods for treating alcoholism” (priority 2004, published 2005).
Entries after “also recorded” stand apart in the source; their conditions may differ. Like-named read-outs stand apart in the source and are kept apart here.

Experiments:
[1] = tested on: alcohol withdrawal; settings: literature (Myrick 1998; Karam-Hage 2000; Minuk 1995); cited from earlier work
[2] = tested on: ethanol drinking (lever presses for ethanol cocktail); assay: rat model of alcohol self-administration (operant lever pressing for 10% ethanol cocktail); settings: for effect on naltrexone's ability to decrease drinking when coadministered: coadministered with naltrexone, conclusion of Example 1; for ED50: Rattus norvegicus; for Lever Presses (Mean ± SEM): 30 min session
Protocol: Male Wistar rats (starting weight of 200±30 grams; Charles River Laboratories, MA) were individually housed with free access to food and water. […] These conditions were recorded once daily throughout the study.
Animals were trained daily in an operant chamber to press a lever to receive access to an ethanol cocktail as a reinforcer using a saccharin fading procedure. […] The final ethanol cocktail contained 10% ethanol in 0.04% saccharine. Each session lasted 30 minutes, during which the rat could press the lever twice to gain access to 0.1 mL of the ethanol cocktail. The operant chamber (Coulbourn Instruments, Allentown, Pa.) is a computer-controlled automated system which recorded the number of lever presses completed by a rat. At the end of the training period (6-8 weeks), rats which consistently drank a sufficient quantity of ethanol to produce a pharmacological effect (minimum intake of 0.6 g/kg/hour) were selected to participate in the drug studies. These trained rats were used repeatedly throughout these studies to control for intra-subject variability. All drugs were administered acutely with a minimum of a 2 day drug washout period.
Naltrexone was prepared daily in 0.9% saline and administered subcutaneously (SC). The anticonvulsants (gabapentin, carbamazepine, levetiracetam and lamotrigine) were suspended in 3% carboxymethyl cellulose; a total volume of 1 mL/kg of this suspension was delivered orally (PO) to the rat using a gavage tube.
The ability of naltrexone to reduce ethanol drinking (i.e., decrease the number of lever presses) was assessed in this animal model of self administration of ethanol. […] The total number of lever presses was recorded over the 30 minute test session. […] An anticonvulsant (gabapentin, carbamazepine, levetiracetam or lamotrigine) was coadministered with naltrexone to determine if it affected naltrexone's ability to decrease ethanol drinking. […] This dose allows one to determine if the co-administered drugs impaired or enhanced naltrexone's effect on ethanol drinking. The anticonvulsants were administered orally 30 minutes prior to a naltrexone injection (SC) (i.e., 60 minutes prior to the beginning of the ethanol drinking test session). The number of lever presses for the ethanol cocktail was recorded at the end of the 30 minute session.

[3] = pharmacokinetic study: naltrexone in plasma alone or coadministered with gabapentin; assay type: in vivo, rat; settings: vehicle+naltrexone vs gabapentin+naltrexone (gabapentin 1 mg/kg, naltrexone 0.5 mg/kg), rats
Protocol: FIG. 3C is a line graph showing the amount of naltrexone in the plasma over a period of time for naltrexone administered alone or naltrexone coadministered with gabapentin.
To determine if this drug interaction might be effective in decreasing ethanol drinking with lower doses of naltrexone, the dose of gabapentin (1 mg/kg) was kept constant and the dose of naltrexone varied from 0.05 to 3.0 mg/kg (FIG. 3B). […] To determine if gabapentin may be altering the plasma profile of naltrexone at this dose combination, a pharmacokinetic study was run in a separate cohort group of rats.

[4] = tested on: audiogenic-induced convulsions; assay: audiogenic-induced convulsions in mouse model of alcohol withdrawal
Protocol: These conditions were recorded once daily throughout the study.
Alcohol is provided in a nutritionally balanced liquid diet.

[5] = anticonvulsant 0.1 mg/kg PO + naltrexone 0.1 mg/kg SC
[6] = anticonvulsant 1.0 mg/kg PO + naltrexone 0.1 mg/kg SC
[7] = anticonvulsant 10.0 mg/kg PO + naltrexone 0.1 mg/kg SC

In the case of `CCCC(CCC)C(=O)O` [valproic acid, 2-propylpentanoic acid], the “safety and efficacy as alternatives to benzodiazepines for the treatment of alcohol withdrawal” value [1] is listed as “safe and efficacious”.

In the case of `Nc1nnc(-c2cccc(Cl)c2Cl)c(N)n1` [Lamotrigine, 6-(2,3-dichlorophenyl)-1,2,4-trizine-3,5-diamine], the “Number of Lever Presses (mean ± sem)” value [2, 5] was 61 ± 13, the “Number of Lever Presses (mean ± sem)” value [2, 6] was 60 ± 13 and the “Number of Lever Presses (mean ± sem)” value [2, 7] was 567 ± 10. For the same compound, the “effect on naltrexone's ability to decrease drinking when coadministered” value [2] was “did not impair or block” and the “effect of combination with naltrexone on number of lever presses for ethanol” value ([2]; lamotrigine 0.1-10 mg/kg PO + naltrexone 0.1 mg/kg SC) was “did not significantly affect”.

For “1-(aminomethyl)cyclohexane acetic acid [Gabapentin]”, the “safety and efficacy as alternatives to benzodiazepines for the treatment of alcohol withdrawal” value [1] is listed as “safe and efficacious”, the “effect on naltrexone's ability to decrease drinking when coadministered” value [2] is listed as “did not impair or block” and the “enhancement of naltrexone's effect on alcohol drinking” value ([2]; coadministration of gabapentin, narrow therapeutic window) is listed as “enhanced naltrexone's effects of alcohol drinking”. For the same compound, the “ethanol drinking, combination compared to naltrexone alone” value ([2]; gabapentin 1 mg/kg PO plus naltrexone 0.5 mg/kg SC, p<0.006) was “further significant decrease”, the “difference in number of lever presses, naltrexone alone vs combined with gabapentin” value ([2]; gabapentin 1 mg/kg constant, naltrexone 0.05 to 3.0 mg/kg, except at 0.5 mg/kg naltrexone) was “No differences” and the “potentiation of naltrexone's decrease in ethanol drinking” value ([2]; gabapentin 0.1 and 10.0 mg/kg coadministered with naltrexone 0.5 mg/kg) was “not seen”. For the same compound, the “effect on lever pressing for ethanol compared to non-drug treated conditions” value ([2]; gabapentin alone, 1 or 10 mg/kg) was “neither gabapentin at 1 or 10 mg/kg alone had any effect”.

For `CC[C@@H](C(N)=O)N1CCCC1=O` (single isomer, unassigned) [Levetiracetam], the “Number of Lever Presses (mean ± sem)” value ([2]; anticonvulsant 1.0 mg/kg PO + naltrexone 0.5 mg/kg SC) was 34 ± 11, the “Number of Lever Presses (mean ± sem)” value ([2]; anticonvulsant 10.0 mg/kg PO + naltrexone 0.5 mg/kg SC) was 36 ± 8 and the “Number of Lever Presses (mean ± sem)” value ([2]; anticonvulsant 100.0 mg/kg PO + naltrexone 0.5 mg/kg SC) was 34 ± 9. The “effect on naltrexone's ability to decrease drinking when coadministered” value [2] was “did not impair or block” and the “difference between naltrexone (with vehicle) and combination with naltrexone, lever presses” value ([2]; levetiracetam 1-100 mg/kg PO + naltrexone 0.5 mg/kg SC) was “no significant differences”.

With `O=C1CC[C@@]2(O)[C@H]3Cc4ccc(O)c5c4[C@@]2(CCN3CC2CC2)[C@H]1O5` [Naltrexone] the “plasma profile of naltrexone, difference between treatment groups” value [3] was “no statistical difference”, the “exacerbation of audiogenic-induced convulsions” value ([4]; naltrexone 3 mg/kg with carbamazepine 10 mg/kg, mice with alcohol withdrawal symptoms) was “did not exacerbate” and the “interaction with carbamazepine's anticonvulsant activity” value ([4]; naltrexone 3 mg/kg, carbamazepine 10 mg/kg) was “did not appear to interact”. It also gave an ED50 ([2]; read-out: ED50 re-established) of 0.1 mg/kg, an ED50 ([2]; sc, read-out: ED50 (dose reducing lever responding for ethanol by approximately 50% compared to baseline)) of 0.5 mg/kg and an ED50 ([2]; sc, read-out: ED50 for decrease in number of lever presses) of 0.1 to 0.5 mg/kg. For the same compound, the “decrease in lever presses vs baseline and vehicle control” value ([2]; lowest dose of naltrexone tested, 0.05 mg/kg) was “no significant decrease”, the “dose dependence of decrease in number of lever presses” value ([2]; naltrexone 0-6 mg/kg SC) was “dose-dependent decrease” and the “Approximate Absolute Ethanol Consumed” value ([2]; naltrexone 0.05 mg/kg SC) was roughly 1.0 g/kg. For the same compound, the “Lever Presses (Mean ± SEM)” value ([2]; naltrexone 0.05 mg/kg SC) was 132 ± 13.3, the “Approximate Absolute Ethanol Consumed” value ([2]; naltrexone 0.1 mg/kg SC) was roughly 0.7 g/kg and the “Lever Presses (Mean ± SEM)” value ([2]; naltrexone 0.1 mg/kg SC) was 88 ± 8.6. The “decrease in number of lever presses from the baseline” value ([2]; naltrexone 0.1 mg/kg, carbamazepine study) was 42.4%, the “Approximate Absolute Ethanol Consumed” value ([2]; naltrexone 0.5 mg/kg SC) was roughly 0.6 g/kg and the “Lever Presses (Mean ± SEM)” value ([2]; naltrexone 0.5 mg/kg SC) was 83 ± 12.1. The “decrease in lever responding for ethanol compared to non-drug baseline” value ([2]; naltrexone 0.5 mg/kg SC, levetiracetam study) was 65%, the “specificity of decrease in drinking for ethanol versus saccharine” value ([2]; naltrexone 0.5 mg/kg SC, 0.1% saccharine solution substituted for ethanol cocktail) was “specific for ethanol; also recorded: selective for decreasing ethanol drinking” and the “Approximate Absolute Ethanol Consumed” value ([2]; naltrexone 1.0 mg/kg SC) was roughly 0.3 g/kg. The “Lever Presses (Mean ± SEM)” value ([2]; naltrexone 1.0 mg/kg SC) was 43 ± 8.6, the “Approximate Absolute Ethanol Consumed” value ([2]; naltrexone 3.0 mg/kg SC) was roughly 0.2 g/kg and the “Lever Presses (Mean ± SEM)” value ([2]; naltrexone 3.0 mg/kg SC) was 24 ± 8.1. For the same compound, the “Approximate Absolute Ethanol Consumed” value ([2]; naltrexone 6.0 mg/kg SC) was roughly 0.2 g/kg, the “Lever Presses (Mean ± SEM)” value ([2]; naltrexone 6.0 mg/kg SC) was 21 ± 5.5 and the “effect on decreasing ethanol drinking at higher doses” value ([2]; naltrexone 3 and 6 mg/kg) was “appeared to plateau”. For the same compound, the “decrease in number of lever presses for ethanol compared to non-drug baseline” value ([2]; naltrexone ED50 dose (0.5 mg/kg), gabapentin study) was 54%, the “reduction in lever pressing for ethanol” value ([2]; naltrexone alone 0.5 mg/kg, additional testing, most of the animals) was “greater than 50%” and the “decrease in lever responding for ethanol compared to non-drug baseline” value ([2]; naltrexone alone (0.1 mg/kg SC), lamotrigine study) was 49%. The “Number of Lever Presses (mean ± sem)” value ([2]; vehicle (drug dose 0.0) PO + naltrexone 0.1 mg/kg SC, carbamazepine study) was 67 ± 17, the “Number of Lever Presses (mean ± sem)” value ([2]; vehicle (drug dose 0.0) PO + naltrexone 0.1 mg/kg SC, lamotrigine study) was 74 ± 18 and the “Number of Lever Presses (mean ± sem)” value ([2]; vehicle (drug dose 0.0) PO + naltrexone 0.5 mg/kg SC, levetiracetam study) was 50 ± 10.

For `NC(=O)N1c2ccccc2C=Cc2ccccc21` [Carbamazepine, 5H-dibenz [b,f] azepine-5-carboxamide], the “Withdrawal Rating (mean ± sem), behavioral response scale of 1-4” value ([4]; carbamazepine 10 mg/kg PO + saline) was 1.1 ± 0.1, the “difference between drug groups on the audiogenic convulsion test” value ([4]; carbamazepine 10 mg/kg with/without naltrexone 3 mg/kg, p=0.18) was “no statistical differences” and the “Number of Lever Presses (mean ± sem)” value [2, 5] was 68 ± 10. For the same compound, the “Number of Lever Presses (mean ± sem)” value [2, 6] was 49 ± 8, the “Number of Lever Presses (mean ± sem)” value [2, 7] was 48 ± 9 and the “effect of combination with naltrexone on ethanol drinking” value ([2]; carbamazepine 0.1-10.0 mg/kg PO + naltrexone 0.1 mg/kg) was “did not significantly affect”. The “effect on naltrexone's ability to decrease drinking when coadministered” value [2] was “did not impair or block”.
